These results are taken from patent publication US12607406B2, “Recombinant virus, composition comprising the same, and uses thereof” (ACADEMIA SINICA, priority 2016, dated 2026).

In general, Km refers to the substrate concentration at which the rate is half of its maximum. As a reminder, the Vmax is the rate approached at saturating substrate.

Assay [1] deals with Influenza A virus A/WSN/33 (H1N1) neuraminidase (NA) on virus, wild type, SEQ ID NO: 4. The format is biochemical.
The subject of assay [2] is Influenza A virus A/WSN/33 (H1N1) neuraminidase (NA), wild type, SEQ ID NO: 4. In kind it is biochemical.

Turning to `CC(=O)N[C@H]1[C@H]([C@H](O)[C@H](O)CO)O[C@@](O[C@H]2[C@@H](O)[C@@H](CO)O[C@@H](O[C@H]3[C@H](O)[C@@H](NC(C)=O)C(O)O[C@@H]3CO)[C@@H]2O)(C(=O)O)C[C@@H]1O` (stereo partly drawn) [3SLN, 3′-sialyl-N-acetyllactosamine], in assay [1], the Km is 115 µM. Also, in assay [2], the Kcat turned out to be 688.2 s⁻¹, the Km was 125 µM and the Vmax stood at 7.04 nM/s.

Take `CC(=O)N[C@H]1[C@H]([C@H](O)[C@H](O)CO)O[C@@](Oc2ccc3c(C)cc(=O)oc3c2)(C(=O)O)C[C@@H]1O` [4-Muα-Neu5Ac, 2-(4-methylumbelliferyl)-α-D-N-acetylneuraminic acid]: the Km in assay [1] was found to be 487 µM. For the same molecule, in assay [2], the Kcat was 514.3 s⁻¹, the Km stood at 585 µM and the Vmax came to 5.025 nM/s.

Turning to `CC(=O)N[C@H]1[C@H]([C@H](O)[C@H](O)CO)O[C@@](OC[C@H]2O[C@@H](O[C@H]3[C@H](O)[C@@H](NC(C)=O)C(O)O[C@@H]3CO)[C@H](O)[C@@H](O)[C@H]2O)(C(=O)O)C[C@@H]1O` (stereo partly drawn) [6SLN, 6′-sialyl-N-acetyllactosamine], the Km in assay [1] turned out to be 534 µM. Moreover, in assay [2], the Kcat was found to be 104.2 s⁻¹, the Km was found to be 679 µM and the Vmax was 1.07 nM/s.
